Experiment [1] concerns the target T1, truncated human beta-secretase (residues 1-458, His6-tagged at the C-terminus) (Homo sapiens, UniProt P56817).
T1 construct: truncated human beta-secretase (residues 1-458, His6-tagged at the C-terminus); His6 (C); made in house; host or cells: insect cells D. melanogaster S2 (baculovirus expression system (so in the source))
Kind of experiment: BACE fluorescence quench assay. In kind it is biochemical. The conditions noted are these: in vitro enzyme activity, BACE fluorescence assay, pH 4.5; read-out: IC50.

Experiment [2] is described as follows: BACE cell assay: soluble Amyloid Beta 1-40 (Aβ 1-40) in culture media of H4-APPsw cells. Particulars: in vitro cell activity, H4-APPsw cells, secreted Aβ 1-40, overnight treatment; read-out: IC50. The experiment is classed as cell-based. Here is the method:
H4 neuroglioma cell line that stably expresses Amyloid Precursor Protein (APP) containing the KM-NL Swedish mutation (H4-APPsw) was generated. For the assay, cells are treated overnight in the presence of inhibitor and the culture media are subjected to ELISA analysis of soluble Amyloid Beta 1-40 (Aβ 1-40).
H4 neuroglioma cell line was cultured in DMEM with 10% FBS and 1% penicillin/streptomycin (Culture Medium) at 37° C., 5% CO2. […] 24 hrs after transfection, the cells were replaced into three new plates (150 mm) in fresh Culture Medium with 250 ug/ml Zeocin. […] The levels of APPsw expression were analyzed by immunoblotting and the production of Aβ 1-40 was detected by ELISA of culture supernatants. The selected clones are maintained in Culture Medium with 250 μg/ml Zeocin and routinely split in 3-4 days to maintain 20-80% confluence.
Split cells. Split H4-APPsw cells in Culture Medium and culture overnight such that cells will be ˜80% confluent next morning.
Create Compound Dilution Plate. After determining the desired final concentration of compound to be tested, create a 500× dilution plate. Add DMSO, but not inhibitor, to each well of Column 1. […] Add compounds of interest at 500× desired final concentration to wells A3-A10. Add DMSO, but not inhibitor, to each well of Columns 11 and 12. Dilute contents of Row A 1:3 in Row B. then continue through Rows C—H.
Create Media Plate. To create a 2× solution of compound in media, add 996 μL Culture Medium to each well of a 96-well 2 ml deep well plate (Media Plate) in biosafety hood. Add 4 μL 5 mM control compound to Media Plate wells A1-D1 for determination of full inhibition.
Add media to Cell Plate. With a multichannel pipettor, mix each well of Media Plate several times to insure homogeneity. Add 100 μL of mixture to Black polymer bottom P-D-L plates. Next, place Medium Plate and Cell Plate in the incubator.
Add cells to Cell Plate. Trypsinize and count H4-APPsw cells. Dilute cells 6×10^5 cells/ml in Culture Medium and remove Cell Plate from incubator. Vortex cells to homogeneity, then using a multichannel repeating pipettor, add 100 μL cell suspension to Cell Plate, adding cells from Row H to Row A. Place Cell Plate in incubator.
Change media in Cell Plate. After 5 h, check Cell Plate by microscope to insure cells are attached. In culture hood, remove media from Cell Plate using multichannel repeating pipettor. Add 100 μl Culture Medium to each well. Remove Media Plate from incubator and mix with pipettor as previous. Add 100 μl from each well of Media Plate to corresponding well in Cell Plate. Place Cell Plate in incubator overnight.
Perform ELISA to determine levels of secreted Aβ 1-40. After 16 h incubation, spin Cell Plate for 8 min at 1200 rpm. The primary reading of Aβ 1-40 levels is done using PerkinElmer AlphaLISA technology. Follow the manufacturer's protocol for performing AlphaLISA in a white ½ area Optiwell plate using Row 12 for peptide standard (1:2 dilutions, starting at 15 ng/ml). Data are acquired using PerkinElmer Fusion-Alpha FP-HT, Alpha protocol (Count Time 0.6 s, Count Time Ratio 30%:70%).
Export data from Fusion using Columnar Report format into a separate file for each plate. Upload data into Activity Base using RIA-DOSE-RESPONSE protocol (Version 1). Data from at least eight doses were fitted to a four parameter logistical model using XLfit software to determine potency.

pIC50: −log10 of the molar value.

T1 sequence (P56817 22-458): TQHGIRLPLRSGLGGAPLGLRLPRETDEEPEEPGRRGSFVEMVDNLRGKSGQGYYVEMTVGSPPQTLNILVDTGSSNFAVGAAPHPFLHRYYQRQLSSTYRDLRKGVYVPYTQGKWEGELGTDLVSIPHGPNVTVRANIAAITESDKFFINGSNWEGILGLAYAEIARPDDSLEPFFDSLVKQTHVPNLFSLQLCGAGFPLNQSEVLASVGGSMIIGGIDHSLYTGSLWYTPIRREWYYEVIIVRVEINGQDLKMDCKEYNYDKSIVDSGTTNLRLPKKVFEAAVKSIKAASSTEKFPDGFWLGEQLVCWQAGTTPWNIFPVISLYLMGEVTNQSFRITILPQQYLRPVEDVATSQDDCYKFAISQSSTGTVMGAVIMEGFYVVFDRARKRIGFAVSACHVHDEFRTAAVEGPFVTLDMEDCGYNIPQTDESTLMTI

Take `CN1O[C@]2(C[C@H]([C@H]3CCCOC3)Oc3ccc(-c4cc(F)cc(F)c4)cc32)N=C1N` (racemic) [Compound 316, (±)-(2S,4R)-6-(3,5-difluorophenyl)-2′-methyl-2-((R)-tetrahydro-2H-pyran-3-yl)-2′H-spiro[chroman-4,5′-[1,2,4]oxadiazol]-3′-amine]: the pIC50 (as a rule, the IC50 on a negative log10 scale, so that one unit is a factor of ten) in experiment [1] is 6.30 to 7.00; in experiment [2] it was 5.00 to 5.30.

As for `CN1O[C@]2(C[C@H]([C@@H]3CCCOC3)Oc3ccc(-c4cc(F)cc(F)c4)cc32)N=C1N` (racemic) [Compound 322, (2S,4R/2R,4S)-6-(3,5-difluorophenyl)-2′-methyl-2-((S/R)-tetrahydro-2H-pyran-3-yl)-2′H-spiro[chroman-4,5′-[1,2,4]oxadiazol]-3′-amine], the results for the pIC50 in experiment [1] and in experiment [2] were 6.30 to 7.00 and 5.00 to 5.30, respectively. For `CN1O[C@]2(C[C@@H]([C@@H]3CCCOC3)Oc3ccc(-c4cc(F)cc(F)c4)cc32)N=C1N` (racemic) [Compound 323, (±)-(2S,4S)-6-(3,5-difluorophenyl)-2′-methyl-2-((R)-tetrahydro-2H-pyran-3-yl)-2′H-spiro[chroman-4,5′-[1,2,4]oxadiazol]-3′-amine] the same measures were 6.30 to 7.00 and 5.30 to 6.00. For `CN1OC2(CC3(CC4CCC3OC4)Oc3ccc(-c4cccc(C#N)c4)cc32)N=C1N` (single isomer, unassigned) [Compound 379] the same measures were 5.30 to 6.00 and 5.30 to 6.00.

On to `CN1OC2(C[C@]3(CC4CCC3OC4)Oc3ccc(-c4cccc(C#N)c4)cc32)N=C1N` (single isomer, unassigned) [Compound 403], for which the pIC50 in experiment [1] is 5.30 to 6.00; in experiment [2] it was 5.00 to 5.30. For `CN1OC2(C[C@@]3(CC4CCC3OC4)Oc3ccc(-c4cccc(C#N)c4)cc32)N=C1N` (single isomer, unassigned) [Compound 408] the same measures were 5.30 to 6.00 and 5.00 to 5.30.

On to `CN1C(=O)C2(C[C@@H](C3CCCc4ccccc43)Oc3ccc(-c4cccc(C#N)c4)cc32)N=C1N` (stereo in doubt) [Compound 282, 3-(2′-amino-1′-methyl-5′-oxo-2-(1,2,3,4-tetrahydronaphthalen-1-yl)-1′,5′-dihydrospiro[chroman-4,4′-imidazole]-6-yl)benzonitrile], for which the pIC50 in experiment [1] was 6.30 to 7.00; in experiment [2], 5.30 to 6.00. For `CN1C(=O)C2(CC([C@H]3CCCc4ccccc43)Oc3ccc(-c4cccc(C#N)c4)cc32)N=C1N` (stereo in doubt) [Compound 335, 3-(2′-amino-1′-methyl-5′-oxo-2-(1,2,3,4-tetrahydronaphthalen-1-yl)-1′,5′-dihydrospiro[chroman-4,4′-imidazole]-6-yl)benzonitrile] the same measures were 6.30 to 7.00 and 5.00 to 5.30.

As for `COc1cc(Cl)cc(-c2ccc3c(c2)[C@]2(C[C@@]4(CCCOC4)O3)N=C(N)N(C)C2=O)c1` [Compound 256], the pIC50 in experiment [2] was 6.30 to 7.00. Same read-out and setting: to `CN1OC2(CC(C3CCOC(C)(C)C3)Oc3ccc(-c4cc(C#N)cc(C(F)(F)F)c4)cc32)N=C1N` (centres unmarked) [Compound 257] belongs 6.30 to 7.00. Same read-out and setting: in the case of `CN1O[C@]2(C[C@H](C3CCOC(C)(C)C3)Oc3ccc(-c4cccc(C#N)c4)cc32)N=C1N` (some centres unmarked) [Compound 258] it was 6.30 to 7.00; in that of `CN1OC2(CC(C3CCOC(C)(C)C3)Oc3ccc(-c4cc(F)cc(C#N)c4)cc32)N=C1N` (centres unmarked) [Compound 260], 5.30 to 6.00; in that of `CN1OC2(CC(C3CCOC(C)(C)C3)Oc3ccc(-c4cc(C#N)ccc4F)cc32)N=C1N` (centres unmarked) [Compound 261], 6.00 to 6.30.

In the case of `CN1C(=O)[C@@]2(C[C@]3(CCCOC3)Oc3ccc(-c4cccc(OC(F)(F)F)c4)cc32)N=C1N` [Compound 262], in experiment [2], the pIC50 was 6.30 to 7.00. Regarding `CN1C(=O)[C@@]2(C[C@@]3(CCCOC3)Oc3ccc(-c4cc(Cl)cc(C#N)c4)cc32)N=C1N` [Compound 263], in experiment [2], the pIC50 is 6.30 to 7.00. On to `CN1OC2(CC(C3CCOC(C)(C)C3)Oc3ccc(-c4cccc(Cl)c4)cc32)N=C1N` (centres unmarked) [Compound 264], for which, in experiment [2], the pIC50 was 5.30 to 6.00. Still for that read-out and setting: to `CC(C)C#Cc1ccc2c(c1)C1(CC3(CCCc4ccccc4C3)O2)N=C(N)N(C)O1` (centres unmarked) [Compound 265] belongs 5.30 to 6.00; to `CN1O[C@]2(C[C@@]3(CCCc4ccccc43)Oc3ccc(-c4cccc(C#N)c4)cc32)N=C1N` [Compound 266], 5.30 to 6.00. On the same count and under the same terms, to `CN1C(=O)C2(CC(C3CCCOC3)Oc3ccc(-c4cc(F)cc(F)c4)cc32)N=C1N` (centres unmarked) [Compound 267] belongs 6.30 to 7.00.

On to `CN1OC2(CC(C3CCCc4ccccc43)Oc3ccc(-c4cc(F)cc(C(F)(F)F)c4)cc32)N=C1N` (centres unmarked) [Compound 269], for which the pIC50 in experiment [2] is 5.00 to 5.30. Consider `CN1C(=O)[C@@]2(C[C@@]3(CCCOC3)Oc3ccc(-c4cc(F)cc(Cl)c4)cc32)N=C1N` [Compound 270], for which the pIC50 in experiment [2] was 6.00 to 6.30. The same measure, in the same setting: to `COc1cc(F)cc(-c2ccc3c(c2)[C@]2(C[C@]4(CCCOC4)O3)N=C(N)N(C)C2=O)c1` [Compound 271] belongs 6.00 to 6.30.

`C[C@H]1CC[C@]2(CO1)CC1(N=C(N)N(C)O1)c1cc(-c3cccc(C#N)c3)ccc1O2` (stereo partly drawn) [Compound 272, 3-(3″-amino-2″-methyl-4″,5″-dihydro-2″H-spiro(spiro(chroman-2,3′-[(2R,6R/2S,6S)-2,4,5,6-tetrahydro-6-methyl-pyran])-(4R/4S)-4,5″-[1,2,4]oxadiazole)-6-yl)benzonitrile]: in experiment [2], the pIC50 was 6.00 to 6.30.

Regarding `CN1C(=O)C2(CC(C3CCCOC3)Oc3ccc(-c4cccc(F)c4)cc32)N=C1N` (centres unmarked) [Compound 273], the pIC50 in experiment [2] is 6.00 to 6.30. Still for that read-out and setting: to `COc1cc(Cl)cc(-c2ccc3c(c2)C2(CC4(CCC(C)OC4)O3)N=C(N)N(C)O2)c1` (centres unmarked) [Compound 274] belongs 5.30 to 6.00. On the same count and under the same terms, in the case of `C[C@@H]1CC[C@@]2(CO1)CC1(N=C(N)N(C)O1)c1cc(-c3cccc(C#N)c3)ccc1O2` (stereo partly drawn) [Compound 275, 3-(3″-amino-2″-methyl-4″,5″-dihydro-2″H-spiro(spiro(chroman-2,3′-[(2R,6R/2S,6S)-2,4,5,6-tetrahydro-6-methyl-pyran])-(4S/4S)-4,5″-[1,2,4]oxadiazole)-6-yl)benzonitrile] it was 6.00 to 6.30; in that of `Cc1cc(C)cc(-c2ccc3c(c2)[C@]2(C[C@]4(CCCOC4)O3)N=C(N)N(C)C2=O)c1` [Compound 276], 6.00 to 6.30.

For `Cc1ccc(C#N)cc1-c1ccc2c(c1)[C@]1(C[C@]3(CCCOC3)O2)N=C(N)N(C)C1=O` [Compound 277], the pIC50 in experiment [2] was 6.30 to 7.00. The same measure, in the same setting: in the case of `COc1cc(Cl)cc(-c2ccc3c(c2)C2(CC(C4CCCc5ccccc54)O3)N=C(N)N(C)O2)c1` (centres unmarked) [Compound 278] it was 5.00 to 5.30. Turning to `CN1O[C@@]2(C[C@@H](C3CCOc4ccccc43)Oc3ccc(-c4cccc(C#N)c4)cc32)N=C1N` (some centres unmarked) [Compound 279], the pIC50 in experiment [1] is 6.30 to 7.00; in experiment [2], 5.30 to 6.00. Regarding `CN1C(=O)[C@@]2(C[C@]3(CCCOC3)Oc3ccc(-c4cc(F)cc(F)c4F)cc32)N=C1N` [Compound 280], the pIC50 in experiment [1] and in experiment [2] was 6.30 to 7.00 in each case. For `COc1cc(OC)cc(-c2ccc3c(c2)[C@]2(C[C@]4(CCCOC4)O3)N=C(N)N(C)C2=O)c1` [Compound 283], the pIC50 in experiment [1] and in experiment [2] was 6.30 to 7.00 in each case. Take `CN1C(=O)C2(CC3(CCCOC3)Oc3ccc(-c4cc(F)cc(Cl)c4)cc32)N=C1N` (centres unmarked) [Compound 286]: the pIC50 in experiment [1] and in experiment [2] was 6.30 to 7.00 throughout. Take `Cc1ccc(F)cc1-c1ccc2c(c1)[C@]1(C[C@]3(CCCOC3)O2)N=C(N)N(C)C1=O` [Compound 287]: the pIC50 in experiment [1] and in experiment [2] was 6.30 to 7.00 each time.

Source of the values: patent US8450308B2 (Vitae Pharmaceuticals, Inc., priority 2008, dated 2013).
